Data reported in ChEMBL document CHEMBL3507680, “University of Dundee, Gates Library screen for HepG2 cell viability”.

Experiment: Human HepG2 cell viability assay in 384 well format
Format: toxicity, cell-based
Design: dose 125 nL, time 70.5 hour; cytotoxicity at 70.5 h: concentration not given beside the values
Details: HepG2 cells, read-out: Inhibition

SMILES | cytotoxicity at 70.5 h
CN1CCCC2(CCN(C(=O)Cc3cc4c(cc3Cl)OCCO4)C2)C1=O (stereo unspecified) | -2.31%
COc1ccc(CCNC(=O)C2CCOC2)c(Cl)c1 (stereo unspecified) | -2.75%
O=C(NCCn1ccnc1)c1cncc(Br)c1 | 19.8%
CC(=O)Nc1ccc(CNc2cccc(CS(C)(=O)=O)c2)cc1 | -3.91%
CCCC1CCCN(C(=O)Nc2cccnc2OC)CC1 (stereo unspecified) | 19.4%
O=C(NCCN1CCCCC1)c1ccoc1 | 17.6%
CN1CCC2(CCN(C(=O)c3ccccc3)CC2)C1 | 31.4%
Cc1cccc2c1ccn2CCC(=O)O | 3.02%
c1cnc(N2CCC3(COCCN(CC4CCOCC4)C3)C2)nc1 (stereo unspecified) | 3.27%
CC(C)N(C)S(=O)(=O)N(Cc1cccs1)Cc1cccs1 | -12.9%
COc1ccc(C(=O)N2CCOCC2c2[nH]ncc2C)cc1F (stereo unspecified) | -3.4%
O=C(Nc1cc(CSCCO)ccn1)c1ccc(Cl)o1 | -10.5%
O=C(N1CCOCC1)N1C[C@H]2CC[C@@H]1CN(C1Cc3ccccc3C1)C2 | 5.2%
CC(C)c1nccn1C(C)C(=O)N1CCN(c2ccccc2Cl)CC1 (stereo unspecified) | -4.99%
O=C1CC(Nc2ccc3nccnc3n2)CN1c1ccccc1 (stereo unspecified) | -2.9%
CN(C)C(=O)Cn1cc(C#N)c(=O)c2cc(Br)ccc21 | 1.29%
CNC(=O)CN1CCCC12CCN(C(=O)c1ccoc1)CC2 | -11.1%
COc1ccccc1C(=O)N1CCC(Oc2ccc(C#N)cn2)CC1 | -2.18%
Cc1ccc(S(=O)(=O)NC(=O)CCOCC(C)C)s1 | 8.21%
COCCCNC(=O)c1cc(-c2cnc(N(C)C)nc2)cn1CC1CC1 | -6.95%
NC1(c2nc(C(F)(F)F)cc(=O)[nH]2)CCCCC1 | 0.93%
Cc1nc(C)n(CC2CCCN(CCCc3ccccc3)C2)n1 (stereo unspecified) | 4.81%
COC(=O)C1CN(Cc2ccc(-c3ccncc3)cc2F)C[C@@H](C)O1 (stereo partly specified) | 11.8%
CC(C)[C@H](NS(C)(=O)=O)C(=O)NCc1cc(-c2ccccc2)nn1C | 7.09%

SMILES | cytotoxicity at 70.5 h
Cc1nc(C(C)C)sc1C(=O)NCCSc1nccn1C | -10.1%
Cc1nnc(Cn2cc(I)cc(C)c2=O)o1 | 3.35%
CCS(=O)(=O)N1CCc2ccc(NC(=O)Nc3cccc(C#N)c3)cc21 | 17.6%
CCn1cnnc1C1CCN(C(=O)C(OC)c2ccccc2)CC1 (stereo unspecified) | -0.299%
O=C(NCc1ccccc1CN1CCCCC1)Nc1nncs1 | -10.2%
O=C(c1cccnc1O)N1CCC(COc2ccccc2)CC1 | -14.5%
c1cnc(N2CCC3(CCN(CC4CC4)CC3)CC2)nc1 | -15.1%
O=C(CN1CCOc2ccc(Cl)cc21)NCCCn1cccn1 | 9.56%
Cc1nc(C(=O)N2CCCC2c2cnn(C)c2)ccc1C#N (stereo unspecified) | 20.3%
CC(C)C(=O)NC1CCCN(C(=O)c2ccc(O)c(Cl)c2)C1 (stereo unspecified) | -9.92%
CCN(CC)Cc1ccc(C(=O)N2CCCCC2Cn2cccn2)o1 (stereo unspecified) | -13.1%
O=C(CSc1nnc(N2CCNCC2)s1)Nc1ccccc1 | 27.6%
CCn1nc(C)c(CN2CCC(c3ccn[nH]3)C2)c1C (stereo unspecified) | 4.91%
Cc1ccc(CNC(=O)N2CCOCC2C2CC2)cc1F (stereo unspecified) | -8.34%
O=C(NCC1COCc2c(-c3ccncc3)nnn2C1)[C@H]1CCCO1 (stereo partly specified) | -0.723%
CCN(CC)C(=O)c1nnc2ccc(N3CCOCC3)cc2n1 | 26.5%
CS(=O)(=O)CCCNC1(c2cccc(Cl)c2)CCCC1 | -5.23%
CC(C)N(CCC#N)C(=O)c1cnc(-c2ccc3c(c2)OCO3)s1 | -0.296%
Cn1c(C2CC2)nc2c1CCN(CCOc1cccc(F)c1)C2 | 5.07%
CN(C)S(=O)(=O)N1CCC2(COCc3cnc(-c4cccnc4)nc32)C1 (stereo unspecified) | -9.11%
O=C(CCc1ccccc1)N1CCCCC1Cn1cccn1 (stereo unspecified) | 11.8%
O=C(Nc1ccccc1)N1C[C@H]2CC[C@@H]1CN(Cc1ccccc1)C2 | -4.8%
O=C(CCc1cccc(Cl)c1)NS(=O)(=O)Cc1ccon1 | 1.74%
O=C(NC1CC(=O)N(C2Cc3ccccc3C2)C1)c1ccoc1 (stereo unspecified) | -2.92%

SMILES | cytotoxicity at 70.5 h
CCOc1cccc(CNC(=O)c2cnn(CC)c2C(F)(F)F)c1 | -2.57%
O=C(O)CCc1ccc(S(=O)(=O)Nc2cnn(CC(F)(F)F)c2)cc1 | -5.48%
COCC(=O)NCC1CCCN(Cc2cc3ccccc3[nH]2)C1 (stereo unspecified) | -13.5%
CN1CCCCCC1C(=O)N1CCN(c2ccccc2C#N)CC1 (stereo unspecified) | -8.6%
CN(CCCc1cnn(C)c1)c1nccc(-c2cc(C(=O)O)ccn2)n1 | -5.12%
CCO[C@@H]1CO[C@@]2(CCCN(S(=O)(=O)c3ccccc3)C2)C1 | -8.47%
Cc1nnc(SCCNC(=O)c2cc(S(N)(=O)=O)ccc2F)s1 | -5.1%
Cc1noc(C)c1CN1CCc2ncnc(-c3ccc(F)cc3)c2CC1 | 2.47%
Cc1csc(CCCNC(=O)NC2CC(=O)N(C(C)(C)C)C2)n1 (stereo unspecified) | -2.05%
O=C(CCN1CCOC(Cn2cccn2)C1)NC1CCCCC1 (stereo unspecified) | -0.965%
CC(C)NC(=O)CCC(=O)N1CCC(c2noc3cc(F)ccc23)CC1 | -17.2%
COc1ccc(Cl)cc1NCC(=O)NCCc1ccccn1 | 5.95%
Cc1ccc(C)c(CSc2nnc(C(N)C(C)C)o2)c1 (stereo unspecified) | -9.25%
Cn1ccnc1CNCCNc1ncc(Cl)cc1Cl | -5.95%
Cc1nc(N2CCOCC2)nc2c1CN(C(=O)Cc1ccccn1)CC2 | -8.21%
COc1cc(C2C3=C(COC3=O)Nc3[nH]nc(C)c32)cc(Br)c1O (stereo unspecified) | 2.06%
COCc1ncc(CN(CCN(C)C)Cc2ccc(C)s2)cn1 | -4.43%
CC(Cc1ccco1)NC(=O)Nc1ccc(S(C)(=O)=O)nc1 (stereo unspecified) | -2.2%
CN(CC(=O)N1CCC(Oc2ccccc2)CC1)c1cnccn1 | -13.9%
CCn1ccnc1CNCC1CCN(CC(O)c2ccccc2)CC1 (stereo unspecified) | -11%
CCN(CC)C1CCN(C(=O)c2cc(CC(C)C)nn2CC)C1 (stereo unspecified) | 3.49%
Cc1cnn(CC2CCCN2CC(=O)NC2CCOCC2)c1 (stereo unspecified) | 0.77%
Cc1nc(C)n(C2CCCN(C(=O)COc3cccc(C#N)c3)C2)n1 (stereo unspecified) | -20.2%
COCCc1noc(CN2CCCC2c2noc(C(C)C)n2)n1 (stereo unspecified) | 17.1%

SMILES | cytotoxicity at 70.5 h
CC(C)n1ccnc1C1CCN(Cc2ccc(Cl)s2)CC1 | -8.66%
CC(CN1CCOC1=O)NC(=O)c1ccccc1Oc1ccccc1 (stereo unspecified) | 27.1%
N#Cc1ccc(CN2CCCC3(Cc4ccccc4CNC3=O)C2)cc1 (stereo unspecified) | 31.4%
Oc1cc(C2CCCCN2C2CCCC2)nc(-c2ccncc2)n1 (stereo unspecified) | -14.1%
Cc1nn(CC(=O)N2CCN(Cc3cn(C)nc3C)CC2)cc1Br | 25.1%
Cc1nc(C)c(C(=O)N2CCc3ccc(F)cc3C2C)o1 (stereo unspecified) | -0.841%
Cc1cc(=O)n(CC(=O)NCC2CCCO2)c(-c2ccc(F)cc2)n1 (stereo unspecified) | 13%
CCC(O)CN1CCN(C(=O)CN(C)c2ccc(Cl)cn2)CC1 (stereo unspecified) | -5.06%
CCN1CCCC1CNC(=O)c1cc(COc2ccccc2F)[nH]n1 (stereo unspecified) | -4.57%
CCC1(CC)CC(=O)N(CC(O)c2cc(F)ccc2F)C1=O (stereo unspecified) | -4.77%
O=C(NCCN1CCNCC1)c1c(O)c2ccccc2[nH]c1=O | 36.3%
O=C(NCc1nncn1C1CCCCC1)C1COc2ccccc2C1 (stereo unspecified) | -4%
COc1cccc([C@@]2(O)CC[C@@H]3CN(C(=O)c4cn(C)nc4C)C[C@@H]32)c1 | 1.27%
FC1(F)CCN(Cc2ccncc2)CC12CCN(c1cccnc1)C2 (stereo unspecified) | 2.6%
Cn1cccc1C(=O)N1CC[C@H]2[C@@H]1CCC(=O)N2c1ccccc1 | 11.6%
Cc1n[nH]c(C)c1CNC(=O)NC1CCCCC1 | -8.57%
COCCN1CCC12CCN(C(=O)c1ccc3[nH]ccc3c1)C2 (stereo unspecified) | -7.37%
Cc1ccc(C(O)CNC(=O)NCc2nc(C)cs2)cc1 (stereo unspecified) | -2.07%
Cc1ccsc1[C@@H]1CCN(C(=O)CCC(=O)N2CCCCCC2)C[C@H]1O | 0.789%
CCN1CC2(CC1=O)CN(Cc1ccco1)CCN(C(=O)N(C)C)C2 (stereo unspecified) | -8.06%
CCc1ccc(C(=O)N2CCCC(n3nc(C)nc3C)C2)o1 (stereo unspecified) | 13.2%
Cc1ccnc(NC(=O)C2CCN(CCCn3ccnc3)CC2)c1 | -15.3%
COc1cc(CNCCc2cnn(C)c2)cc(OC)c1OC | 21.4%
Cc1ccc(-c2cc(N)c(=O)n(C(C)C(N)=O)n2)o1 (stereo unspecified) | -5.11%

SMILES | cytotoxicity at 70.5 h
COCC1N(C(=O)Nc2ccccc2)[C@H]2CC[C@]1(O)CC2 (stereo partly specified) | -7.67%
CC(CCNC(=O)NCCc1ccc(S(N)(=O)=O)cc1)c1ccccc1 (stereo unspecified) | -8.25%
COCCNC(=O)c1cc2c(c3ccccc3n2C)n1C(=O)N(C)C | -9.07%
N#Cc1nccnc1N1CCC(CSc2ccccc2)C1 (stereo unspecified) | -9.74%
O=C(CN(Cc1ccco1)C1CC1)N1CCCCCC1 | -1.39%
Cc1cncc(Oc2ccc(CO)cc2)n1 | -5.95%
C=Cc1ccc(CN2CCCC3(CNC(=O)c4ccccc4O3)C2)cc1 (stereo unspecified) | 8.95%
COCC(C)NC(=O)CN1CCC(C)CC1 (stereo unspecified) | -20.8%
O=C(COc1ccccc1Br)N1CCOc2ccncc21 | -3.18%
NC(=O)N1CCC2(CC1)CN(c1ccsc1)C(=O)CO2 | 17.7%
Nc1nc2c(c(=O)[nH]1)CCN(C(=O)c1cccc3nccnc13)C2 | -13.2%
Cn1cc(N2CCCC(Oc3ccc(F)cc3Cl)C2=O)cn1 (stereo unspecified) | -4.99%
CSc1ccccc1C(=O)N1C[C@H]2CC[C@@H]1CN(C(=O)N(C)C)C2 | -8.08%
CC(C)C(C(=O)N1CCC(N(C)c2cccnn2)CC1)n1cncn1 (stereo unspecified) | -12.6%
Cc1ccc(N2CCCC(NCc3ccsc3)C2)nn1 (stereo unspecified) | -4.89%
CN1CCc2c(CNc3ncccn3)n[nH]c2C1 | 49.1%
CCc1cccc(OC2CN(C(=O)[C@@H](N)CCSC)C2)c1 | -1.91%
COc1ccc(Cl)cc1NCC(=O)NCCNc1ncccn1 | -2.38%
CN1CCN(C2COC3(CCN(CC4CC4)CC3)C2)CC1 (stereo unspecified) | 0.151%
Cc1cccc(NC(=O)[C@@H]2CCCN2Cc2nc3ccccc3o2)n1 | 4.7%
